Experiments:
Assay in all cases: Post-emergence herbicidal effect, greenhouse pot test
Assay type in all cases: in vivo
Details in all cases: 0.32 kg of active substance per hectare, rated visually after about 3 weeks
Avena fatua = system: Avena fatua
Protocol: (§1) Seeds of monocotyledonous and dicotyledonous weed and crop plants are placed in sandy loam in wood-fiber pots, covered with soil and cultivated in a greenhouse under good growth conditions. 2 to 3 weeks after sowing, the test plants are treated at the one-leaf stage. The compounds (I) according to the invention, formulated in the form of wettable powders (WP), are then applied by spraying as aqueous suspension or emulsion at a water application rate of 600 I/ha (converted) with the addition of 0.2% of wetting agent to the green parts of the plants. After the test plants have been kept in the greenhouse under optimum growth conditions for about 3 weeks, the activity of the preparations is rated visually in comparison to untreated controls (herbicidal activity in percent (%): 100% activity=the plants have died, 0% activity=like control plants).

Echinochloa crus galli = system: Echinochloa crus galli
Protocol: as §1

Alopecurus myosuroides = system: Alopecurus myosuroides
Protocol: as §1

Abutilon theophrasti = system: Abutilon theophrasti
Protocol: as §1

Measured: herbicidal activity

COC(=O)Cc1c(C)nn(-c2cncn2C)c1-c1ccc(Cl)cc1 [Compound 5-1107, methyl [5-(4-chlorophenyl)-3-methyl-1-(1-methyl-1H-imidazol-5-yl)-1H-pyrazol-4-yl]acetate]
≥ 80%: all assays above

Reference: patent US20110257014A1, “1-(Heteroaryl)pyrazol-4-ylacetic acids, processes for their preparation and their use as herbicides and plant growth regulators” (BAYER CROPSCIENCE AG, priority 2009, published 2011)
